# According to patent publication US20230278972A1, “SUBSTITUTED HALOALKYL SULFONANILIDE HERBICIDES” (FMC Corporation, priority 2020, published 2023):
# Assays:
# Type in all cases: in vivo
# [1] = tested on: barnyardgrass (Echinochloa crus-galli); assay: Test A postemergence, barnyardgrass; settings: Postemergence, 0 to 100 scale (0 no effect, 100 complete control); for Plant response rating, Barnyardgrass: 125 g ai/ha; for Barnyardgrass plant response rating: 500 g ai/ha, visual injury vs untreated controls after approx. 10 days
# Outline: (§1)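 Test chemicals, formulated in a non-phytotoxic solvent mixture with surfactant, were sprayed postemergence on plants 2 to 10 cm tall at the one- to two-leaf stage. Preemergence treatment was a directed soil spray onto freshly seeded pots. Both used a loam soil and sand blend.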
# [2] = tested on: pigweed (Amaranthus retroflexus); assay: Test A preemergence, pigweed; settings: 0 to 100 scale (0 no effect, 100 complete control)
# Outline: as §1
# [3] = tested on: Foxtail, Giant (giant foxtail, Setaria faberi); assay: Test A preemergence, Foxtail, Giant; settings: Preemergence, 0 to 100 scale (0 no effect, 100 complete control)
# Outline: (§2)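 Formulated with a surfactant in a non-phytotoxic solvent, compounds are applied to loam–sand pots, either to bare soil immediately after seeding (preemergence) or to seedlings of 2 to 10 cm bearing one to two leaves (postemergence).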
# [4] = tested on: ragweed (common ragweed, Ambrosia artemisiifolia); assay: Test A preemergence, ragweed; settings: Preemergence, 0 to 100 scale (0 no effect, 100 complete control)
# Outline: as §2
# [5] = tested on: barnyardgrass (Echinochloa crus-galli); assay: Test A preemergence, barnyardgrass; settings: Preemergence, 0 to 100 scale (0 no effect, 100 complete control)
# Outline: as §2
# [6] = tested on: pigweed (Amaranthus retroflexus); assay: Test A postemergence, pigweed; settings: Postemergence, 0 to 100 scale (0 no effect, 100 complete control); for Plant response rating, Pigweed: 125 g ai/ha; for Pigweed plant response rating: 500 g ai/ha, visual injury vs untreated controls after approx. 10 days
# Outline: as §2
# [7] = tested on: Foxtail, Giant (giant foxtail, Setaria faberi); assay: Test A postemergence, Foxtail, Giant; settings: Postemergence, 0 to 100 scale (0 no effect, 100 complete control); for Plant response rating, Foxtail, Giant: 125 g ai/ha; for Foxtail, Giant plant response rating: 500 g ai/ha, visual injury vs untreated controls after approx. 10 days
# Outline: as §2
# [8] = tested on: Ryegrass, Italian (Italian ryegrass, Lolium multiflorum); assay: Test A preemergence, Ryegrass, Italian; settings: Preemergence, 0 to 100 scale (0 no effect, 100 complete control)
# Outline: as §2
# [9] = tested on: wheat (Triticum aestivum); assay: Test A postemergence, wheat; settings: Postemergence, 0 to 100 scale (0 no effect, 100 complete control); for Plant response rating, Wheat: 125 g ai/ha; for Wheat plant response rating: 500 g ai/ha, visual injury vs untreated controls after approx. 10 days
# Outline: as §1
# [10] = tested on: blackgrass (Alopecurus myosuroides); assay: Test A postemergence, blackgrass; settings: Postemergence, 0 to 100 scale (0 no effect, 100 complete control); for Plant response rating, Blackgrass: 125 g ai/ha; for Blackgrass plant response rating: 500 g ai/ha, visual injury vs untreated controls after approx. 10 days
# Outline: as §2
# kochia (Bassia scoparia) [11] = assay: Test A preemergence, kochia; settings: Preemergence, 0 to 100 scale (0 no effect, 100 complete control)
# Outline: as §2
# [12] = tested on: ragweed (common ragweed, Ambrosia artemisiifolia); assay: Test A postemergence, ragweed; settings: Postemergence, 0 to 100 scale (0 no effect, 100 complete control); for Plant response rating, Ragweed: 125 g ai/ha; for Ragweed plant response rating: 500 g ai/ha, visual injury vs untreated controls after approx. 10 days
# Outline: as §2
# kochia (Bassia scoparia) [13] = assay: Test A postemergence, kochia; settings: Postemergence, 0 to 100 scale (0 no effect, 100 complete control); for Plant response rating, Kochia: 125 g ai/ha; for Kochia plant response rating: 500 g ai/ha, visual injury vs untreated controls after approx. 10 days
# Outline: as §2
# corn (Zea mays) = assay: Test A postemergence, corn; settings: Postemergence, 0 to 100 scale (0 no effect, 100 complete control); for Plant response rating, Corn: 125 g ai/ha; for Corn plant response rating: 500 g ai/ha, visual injury vs untreated controls after approx. 10 days
# Outline: as §2
# [14] = tested on: Ryegrass, Italian (Italian ryegrass, Lolium multiflorum); assay: Test A postemergence, Ryegrass, Italian; settings: Postemergence, 0 to 100 scale (0 no effect, 100 complete control); for Plant response rating, Ryegrass, Italian: 125 g ai/ha; for Ryegrass, Italian plant response rating: 500 g ai/ha, visual injury vs untreated controls after approx. 10 days
# Outline: as §2
# [15] = tested on: galium (catchweed bedstraw, Galium aparine); assay: Test A postemergence, galium; settings: Postemergence, 0 to 100 scale (0 no effect, 100 complete control); for Plant response rating, Galium: 125 g ai/ha; for Galium plant response rating: 500 g ai/ha, visual injury vs untreated controls after approx. 10 days
# Outline: as §1
# [16] = 125 g ai/ha, visual injury, approx. 10 days
Compound,"Plant response rating, Barnyardgrass [1]",Barnyardgrass plant response rating [1],"Plant response rating, Pigweed [2, 16]","Plant response rating, Pigweed ([2]; 500 g ai/ha)","Plant response rating, Foxtail, Giant [3, 16]","Plant response rating, Foxtail, Giant ([3]; 500 g ai/ha)","Plant response rating, Ragweed [4, 16]","Plant response rating, Ragweed ([4]; 500 g ai/ha)","Plant response rating, Barnyardgrass ([5]; 500 g ai/ha)","Plant response rating, Pigweed [6]",Pigweed plant response rating [6],"Plant response rating, Foxtail, Giant [7]","Foxtail, Giant plant response rating [7]","Plant response rating, Ryegrass, Italian [8, 16]","Plant response rating, Ryegrass, Italian ([8]; 500 g ai/ha)","Plant response rating, Wheat [9]",Wheat plant response rating [9],"Plant response rating, Blackgrass [10]",Blackgrass plant response rating [10],"Plant response rating, Kochia (kochia (Bassia scoparia) [11]; [16])",also measured
CC(=O)OCN(c1cc(C2=NOC3(CCCC3)C2)c(C)cc1C)S(=O)(=O)C(F)(F)F [Compound 218],80,90,80,90,100,100,20,90,100,50,80,50,90,100,100,10,70,10,40,30,"Plant response rating, Barnyardgrass [5, 16]: 100; Plant response rating, Kochia (kochia (Bassia scoparia) [11]; 500 g ai/ha): 60; Plant response rating, Ragweed [12]: 40; Ragweed plant response rating [12]: 80; Plant response rating, Kochia (kochia (Bassia scoparia) [13]): 60; Kochia plant response rating (kochia (Bassia scoparia) [13]): 80; Plant response rating, Corn (corn (Zea mays)): 10; Corn plant response rating (corn (Zea mays)): 70; Plant response rating, Ryegrass, Italian [14]: 30; Ryegrass, Italian plant response rating [14]: 80; Plant response rating, Galium [15]: 60; Galium plant response rating [15]: 80"
CSC(=O)N(c1cc(C2=NOC3(CCCC3)C2)c(C)cc1C)S(=O)(=O)C(F)(F)F [Compound 219],0,70,40,60,50,90,0,0,100,40,70,0,20,50,60,0,0,0,0,20,"Plant response rating, Barnyardgrass [5, 16]: 0; Plant response rating, Kochia (kochia (Bassia scoparia) [11]; 500 g ai/ha): 40; Plant response rating, Ragweed [12]: 20; Ragweed plant response rating [12]: 50; Plant response rating, Kochia (kochia (Bassia scoparia) [13]): 30; Kochia plant response rating (kochia (Bassia scoparia) [13]): 60; Plant response rating, Corn (corn (Zea mays)): 0; Corn plant response rating (corn (Zea mays)): 0; Plant response rating, Ryegrass, Italian [14]: 20; Ryegrass, Italian plant response rating [14]: 50; Plant response rating, Galium [15]: 50; Galium plant response rating [15]: 70"
CC(=O)N(c1cc(C2=NOC3(CCCC3)C2)c(C)cc1C)S(=O)(=O)C(F)(F)F [Compound 220],20,70,70,100,100,100,30,60,100,0,70,0,50,100,100,20,60,0,30,20,"Plant response rating, Barnyardgrass [5, 16]: 100; Plant response rating, Kochia (kochia (Bassia scoparia) [11]; 500 g ai/ha): 70; Plant response rating, Ragweed [12]: 0; Ragweed plant response rating [12]: 40; Plant response rating, Kochia (kochia (Bassia scoparia) [13]): 20; Kochia plant response rating (kochia (Bassia scoparia) [13]): 60; Plant response rating, Corn (corn (Zea mays)): 0; Corn plant response rating (corn (Zea mays)): 30; Plant response rating, Ryegrass, Italian [14]: 0; Ryegrass, Italian plant response rating [14]: 20; Plant response rating, Galium [15]: 60; Galium plant response rating [15]: 80"
Cc1cc(Cl)c(NS(=O)(=O)C(F)(F)F)cc1C1=NOC2(CCCCC2)C1 [Compound 221],30,80,60,100,100,100,90,90,100,20,80,0,90,100,100,20,70,10,30,70,"Plant response rating, Barnyardgrass [5, 16]: 100; Plant response rating, Kochia (kochia (Bassia scoparia) [11]; 500 g ai/ha): 90; Plant response rating, Ragweed [12]: 70; Ragweed plant response rating [12]: 90; Plant response rating, Kochia (kochia (Bassia scoparia) [13]): 60; Kochia plant response rating (kochia (Bassia scoparia) [13]): 70; Plant response rating, Corn (corn (Zea mays)): 10; Corn plant response rating (corn (Zea mays)): 40; Plant response rating, Ryegrass, Italian [14]: 0; Ryegrass, Italian plant response rating [14]: 60; Plant response rating, Galium [15]: 80; Galium plant response rating [15]: 100"
Cc1cc(Cl)c(N(S(=O)(=O)C(F)(F)F)S(=O)(=O)C(F)(F)F)cc1C1=NOC(C)(C)C1 [Compound 222],10,70,50,100,40,50,60,90,90,20,40,0,10,30,80,0,70,20,20,0,"Plant response rating, Kochia (kochia (Bassia scoparia) [11]; 500 g ai/ha): 40; Plant response rating, Ragweed [12]: 50; Ragweed plant response rating [12]: 90; Plant response rating, Kochia (kochia (Bassia scoparia) [13]): 10; Kochia plant response rating (kochia (Bassia scoparia) [13]): 50; Plant response rating, Corn (corn (Zea mays)): 0; Corn plant response rating (corn (Zea mays)): 0; Plant response rating, Ryegrass, Italian [14]: 0; Ryegrass, Italian plant response rating [14]: 0; Plant response rating, Galium [15]: 90; Galium plant response rating [15]: 90"
